# Source: ChEMBL document CHEMBL5506042, “Discovery of the Clinical Candidate IDOR-1117-2520: A Potent and Selective Antagonist of CCR6 for Autoimmune Diseases” (J Med Chem, 2024)
# pIC50: −log10 of the molar value. Calls of active or inactive are those of the source. The rule behind the calls is not given here.
# Columns and labels:
# [1] = Cmax in C57BL/6 mouse at 50 mg/kg, po; type: ADME, organism-based; settings: in vivo
# [2] = Intrinsic clearance in human liver microsomes at 1 uM measured for 15 mins in presence of NADPH regenerating system measured per mg protein by LC-MS/MS analysis; type: ADME, Microsome; settings: read-out: CLH
# [3] = target: T1, C-C chemokine receptor type 6 (Mus musculus, UniProt O54689); assay: Antagonist activity at CCR6 in C57BL/6J mouse whole blood assessed as inhibition of CCL20-stimulated receptor internalization in lymphocytes incubated for 40 mins followed by CCL20 addition and measured after 40 mins by flow cytometry
# T1 sequence (O54689 whole entry): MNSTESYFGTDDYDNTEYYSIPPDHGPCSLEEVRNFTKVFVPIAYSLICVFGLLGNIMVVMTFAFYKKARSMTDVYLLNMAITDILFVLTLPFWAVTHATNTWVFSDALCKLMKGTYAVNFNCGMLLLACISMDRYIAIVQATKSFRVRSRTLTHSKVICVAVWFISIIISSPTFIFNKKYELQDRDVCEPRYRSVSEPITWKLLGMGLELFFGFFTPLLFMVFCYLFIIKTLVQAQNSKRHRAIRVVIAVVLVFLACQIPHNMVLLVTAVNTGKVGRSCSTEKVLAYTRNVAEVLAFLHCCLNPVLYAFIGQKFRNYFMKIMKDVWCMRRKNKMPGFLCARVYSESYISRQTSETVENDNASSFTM
# [4] = Intrinsic clearance in rat liver microsomes at 0.1 uM measured for 15 mins in presence of NADPH regenerating system by LC-MS/MS analysis; type: ADME, Microsome; settings: read-out: CLH
# [5] = AUC in C57BL/6 mouse at 15 mg/kg, po; type: ADME, organism-based; settings: in vivo
# [6] = Oral bioavailability in Wistar rat at 50 mg/kg; type: ADME, organism-based; settings: in vivo
# [7] = Fraction unbound in mouse plasma at 1 uM by rapid equilibrium dialysis based LC-MS/MS analysis; type: ADME, cell-free
# [8] = Cytotoxicity against human HepG2 cells assessed as reduction in cell viability incubated for 72 hrs by CellTiter-Glo assay
# [9] = Chemical stability of the compound at 0.1 mg/ml at pH 4 irradiated with xenon lamp at 250W/m2 incubated for 24 hrs by stress test; type: physicochemical; settings: buffer, read-out: Stability
# [10] = Cmax in C57BL/6 mouse at 15 mg/kg, po; type: ADME, organism-based; settings: in vivo
# [11] = Cmax in Wistar rat at 50 mg/kg, po; type: ADME, organism-based; settings: in vivo
# [12] = Lipophilicity, LogD of the compound in 1-Octanol/PBS at pH 7.4 by miniaturized shake flask method
# [13] = Cmax in Wistar rat at 10 mg/kg, po; type: ADME, organism-based; settings: in vivo
# HepaRG = assay: Cytotoxicity against human HepaRG cells assessed as leakage of intracellular LDH at 30 uM incubated for 24 hrs by spectrophotometry
# [14] = Tmax in C57BL/6 mouse at 50 mg/kg, po; type: ADME, organism-based; settings: in vivo
# [15] = Tmax in C57BL/6 mouse at 15 mg/kg, po; type: ADME, organism-based; settings: in vivo
# [16] = Tmax in Wistar rat at 50 mg/kg, po; type: ADME, organism-based; settings: in vivo
# [17] = Chemical stability of the compound at 0.1 mg/ml at pH 9 irradiated with xenon lamp at 250W/m2 incubated for 24 hrs by stress test; type: physicochemical; settings: buffer, read-out: Stability
# [18] = fCmax in po dosed C57BL/6 mouse; type: ADME, organism-based; settings: in vivo
# [19] = Intrinsic clearance in rat liver microsomes at 1 uM measured for 15 mins in presence of NADPH regenerating system by LC-MS/MS analysis; type: ADME, Microsome; settings: read-out: CLH
# [20] = Half life in Wistar rat at 1 mg/kg, iv; type: ADME, organism-based; settings: in vivo
# [21] = Clearance in Wistar rat at 1 mg/kg, iv; type: ADME, organism-based; settings: in vivo
# [22] = Volume of distribution at steady state in Wistar rat at 1 mg/kg, iv; type: ADME, organism-based; settings: in vivo, read-out: Vdss
# [23] = Tmax in Wistar rat at 10 mg/kg, po; type: ADME, organism-based; settings: in vivo
# [24] = Intrinsic clearance in rat liver microsomes at 3 uM measured for 15 mins in presence of NADPH regenerating system by LC-MS/MS analysis; type: ADME, Microsome; settings: read-out: CLH
# [25] = Intrinsic clearance in mouse liver microsomes at 1 uM measured for 15 mins in presence of NADPH regenerating system by LC-MS/MS analysis; type: ADME, Microsome; settings: read-out: CLH
# [26] = Oral bioavailability in Wistar rat at 10 mg/kg; type: ADME, organism-based; settings: in vivo
# [27] = AUC in Wistar rat at 10 mg/kg, po; type: ADME, organism-based; settings: in vivo
# [28] = Chemical stability of the compound at 0.1 mg/ml at pH 10 irradiated with xenon lamp at 250W/m2 incubated for 24 hrs by stress test; type: physicochemical; settings: buffer, read-out: Stability
# Mus musculus [29] = assay: Inhibition of chemotaxis of CCR6-positive B cells in bronchoalveolar lavage fluid in ovalbumin-induced inflammation BALB/c mouse model at 15 mg/kg/day, po treated with OVA and compound from day 1 to day 18 and measured at 24 hrs post last dose of OVA challenge by flow cytometry; type: functional, organism-based; settings: time 18.0 day
# [30] = Chemical stability of the compound at 0.1 mg/ml at pH 2 irradiated with xenon lamp at 250W/m2 incubated for 24 hrs by stress test; type: physicochemical; settings: buffer, read-out: Stability
# [31] = Chemical stability of the compound at 0.1 mg/ml at pH 7 irradiated with xenon lamp at 250W/m2 incubated for 24 hrs by stress test; type: physicochemical; settings: buffer, read-out: Stability
# Mus musculus [32] = assay: Inhibition of chemotaxis of CCR6-positive B cells in bronchoalveolar lavage fluid in ovalbumin-induced inflammation BALB/c mouse model at 15 mg/kg/day, po treated with OVA from day 1 to day 18 and with compound from day 8 to 18 and measured at 24 hrs post last dose of OVA challenge by flow cytometry; type: functional, organism-based; settings: time 11.0 day
# [33] = Fraction unbound in rat plasma at 1 uM by rapid equilibrium dialysis based LC-MS/MS analysis; type: ADME, cell-free
# [34] = AUC in C57BL/6 mouse at 50 mg/kg, po; type: ADME, organism-based; settings: in vivo
# [35] = AUC in Wistar rat at 50 mg/kg, po; type: ADME, organism-based; settings: in vivo
compound,measurement,setting,value
CN1CC(C)(C(O)(c2ccc(OC(F)(F)F)cc2)c2cncc(N3CCCC3)c2)C1 (racemic),Cmax,[1],1100 ng/mL
same,"microsomal CLint at […], 1 µM",[2],146 µL/min/mg
same,pIC50,[3],8.89
same,"microsomal CLint at […], 0.1 µM",[4],> 1250 µL/min/mg
same,AUC,[5],145 ng·h/mL
same,bioavailability,[6],11%
same,fraction unbound at 1 µM,[7],0.05
same,IC50 at 72 h,[8],11 µM
same,"remaining at 24 h, 0.1 mg/ml",[9],4%
same,Cmax,[10],30 ng/mL
same,Cmax,[11],308 ng/mL
same,logD,[12],2.2
same,Cmax,[13],110 ng/mL
same,Activity,HepaRG,Non-Toxic
same,Tmax,[14],2 h
same,Tmax,[15],30 min
same,Tmax,[16],30 min
same,"remaining at 24 h, 0.1 mg/ml",[17],2%
same,fCmax,[18],55 ng/mL
same,"microsomal CLint at […], 1 µM",[19],750 µL/min/mg
same,half-life,[20],144 min
same,clearance,[21],62 mL/min/kg
same,Vd,[22],11 L/kg
same,Tmax,[23],30 min
same,"microsomal CLint at […], 3 µM",[24],450 µL/min/mg
same,"microsomal CLint at […], 1 µM",[25],666 µL/min/mg
same,bioavailability,[26],6%
same,AUC,[27],165 ng·h/mL
same,"remaining at 24 h, 0.1 mg/ml",[28],2%
same,inhibition,Mus musculus [29],Active
same,"remaining at 24 h, 0.1 mg/ml",[30],97%
same,"remaining at 24 h, 0.1 mg/ml",[31],3%
same,inhibition,Mus musculus [32],Active
same,fraction unbound at 1 µM,[33],0.06
same,AUC,[34],5030 ng·h/mL
same,AUC,[35],1500 ng·h/mL
